Test results as given in patent US20230114728A1 (Venatorx Pharmaceuticals, Inc., priority 2019, published 2023).
Values after ≈ are worked out from the molar mass of the structure shown.

Columns and labels:
Type in all cases: cell-based
E. coli AG100 = assay: Broth microdilution MIC in CAMHB; details: Escherichia coli; E. coli AG100 (wild-type parent); MHB; read-out: Minimum Inhibitory Concentration, E. coli AG100
How it was run: (§1)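 Standard CLSI-style microdilution in cation-adjusted Mueller Hinton broth, 2-fold dilution series, incubated 16-20 h at 37° C; endpoint was visual absence of growth.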

[1] = tested on: K. pneumoniae 848844 producing SHV-11 and KPC-2; assay: Broth microdilution MIC in CAMHB; details: Klebsiella pneumoniae, read-out: Minimum Inhibitory Concentration, K. pneumoniae 848844
How it was run: as §1

P. aeruginosa ATCC 27853 = assay: Broth microdilution MIC in CAMHB; details: Pseudomonas aeruginosa, ATCC27853; MHB; read-out: Minimum Inhibitory Concentration, P. aeruginosa ATCC 27853
How it was run: as §1

A. baumannii ATCC 19606 = assay: Broth microdilution MIC in CAMHB; details: Acinetobacter baumannii, ATCC19606; MHB; read-out: Minimum Inhibitory Concentration, A. baumannii ATCC 19606
How it was run: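 MIC, read by eye, is the lowest compound concentration giving no bacterial growth after 16-20 h at 37° C. Test compounds are serially diluted 2-fold in CAMHB and seeded with 2-8×10^5 CFU/mL of bacteria taken from a 3-5 h shaking culture, following CLSI methods.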

[2] = tested on: K. pneumoniae SI-117 producing VIM-1; assay: Broth microdilution MIC in CAMHB; details: Klebsiella pneumoniae, read-out: Minimum Inhibitory Concentration, K. pneumoniae SI-117
How it was run: as §1

[3] = tested on: P. aeruginosa (ΔmexAB-oprM); assay: Broth microdilution MIC in CAMHB; details: Pseudomonas aeruginosa, read-out: Minimum Inhibitory Concentration, P. aeruginosa ΔmexAB-OprM
How it was run: as §1

E. coli ATCC 25922 = assay: Broth microdilution MIC in CAMHB; details: Escherichia coli, ATCC25922; E. coli ATCC 25922; MHB; read-out: Minimum Inhibitory Concentration, E. coli 25922
How it was run: as §1

P. aeruginosa ATCC 35151 = assay: Broth microdilution MIC in CAMHB; details: Pseudomonas aeruginosa, ATCC35151; MHB; hyper-permeable strain; read-out: Minimum Inhibitory Concentration, P. aeruginosa ATCC 35151
How it was run: as §1

E. coli D22 = assay: Broth microdilution MIC in CAMHB; details: Escherichia coli; E. coli D22 (hyper-permeable); MHB; read-out: Minimum Inhibitory Concentration, E. coli D22
How it was run: as §1

E. coli AG100A = assay: Broth microdilution MIC in CAMHB; details: Escherichia coli, read-out: Minimum Inhibitory Concentration, E. coli AG100A
How it was run: as §1

[4] = tested on: K. pneumoniae UMM producing SHV-5 and KPC-2; assay: Broth microdilution MIC in CAMHB; details: Klebsiella pneumoniae, read-out: Minimum Inhibitory Concentration, K. pneumoniae UMM
How it was run: as §1

E. coli 901C = assay: Broth microdilution MIC in CAMHB; details: Escherichia coli; E. coli 901C (hyper-permeable); MHB; read-out: Minimum Inhibitory Concentration, E. coli 901C
How it was run: as §1

N. gonorrhoeae WHO L = assay: Liquid broth MIC in Fastidious broth; details: Neisseria gonorrhoeae; N. gonorrhoeae strain WHO L; Fastidious broth; read-out: Minimum Inhibitory Concentration, N. gonorrhoeae WHO L
How it was run: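 Colonies were swabbed from chocolate agar after 24 h growth and standardised by optical density at 600 nm. Compounds were serially diluted twofold in Fastidious broth, and bacteria added to give 5×10^5 CFU/mL. After about 24 h at 36 °C in 5% CO2, the lowest concentration allowing under 10% growth was taken as MIC.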

| Compound | MIC (E. coli AG100) [µg/mL] | MIC [1] [µg/mL] | MIC (P. aeruginosa ATCC 27853) [µg/mL] | MIC (A. baumannii ATCC 19606) [µg/mL] | MIC [2] [µg/mL] | MIC [3] [µg/mL] | MIC (E. coli ATCC 25922) [µg/mL] | MIC (P. aeruginosa ATCC 35151) [µg/mL] | MIC (E. coli D22) [µg/mL] | MIC (E. coli AG100A) [µg/mL] | MIC [4] [µg/mL] | MIC (E. coli 901C) [µg/mL] | MIC (N. gonorrhoeae WHO L) [µg/mL] |
| --- | --- | --- | --- | --- | --- | --- | --- | --- | --- | --- | --- | --- | --- |
| NCCN1CCN(C(=O)N[C@H](C(=O)N[C@H]2Cc3cccc(C(=O)O)c3OB2O)c2cc(F)c(O)c(F)c2F)C(=O)C1=O (single isomer, unassigned) [Example 167] | 32 to 64 (≈ 53.9 to 108 µM) | > 128 | > 128 | > 128 | > 128 | 8 to 16 (≈ 13.5 to 27 µM) | 32 to 64 (≈ 53.9 to 108 µM) | 0.5 to 1 (≈ 0.843 to 1.69 µM) | 8 to 16 (≈ 13.5 to 27 µM) | 8 to 16 (≈ 13.5 to 27 µM) | 32 to 64 (≈ 53.9 to 108 µM) | 2 to 4 (≈ 3.37 to 6.74 µM) | > 64 |
| NCCN1CCN(C(=O)N[C@@H](C(=O)N[C@H]2Cc3cccc(C(=O)O)c3OB2O)c2cc(F)c(O)c(F)c2F)C(=O)C1=O (single isomer, unassigned) [Example 168] | 8 to 16 (≈ 13.5 to 27 µM) | 32 to 64 (≈ 53.9 to 108 µM) | 32 to 64 (≈ 53.9 to 108 µM) | > 128 | 32 to 64 (≈ 53.9 to 108 µM) | 2 to 4 (≈ 3.37 to 6.74 µM) | 8 to 16 (≈ 13.5 to 27 µM) | < 0.25 | 0.5 to 1 (≈ 0.843 to 1.69 µM) | 0.5 to 1 (≈ 0.843 to 1.69 µM) | 8 to 16 (≈ 13.5 to 27 µM) | < 0.25 | 16 to 32 (≈ 27 to 53.9 µM) |
| NCCN1CCN(C(=O)N[C@H](C(=O)N[C@H]2Cc3cccc(C(=O)O)c3OB2O)c2ccc(O)c(F)c2F)C(=O)C1=O (single isomer, unassigned) [Example 169] | 32 to 64 (≈ 55.6 to 111 µM) | > 128 | > 128 | > 128 | > 128 | 32 to 64 (≈ 55.6 to 111 µM) | 8 to 16 (≈ 13.9 to 27.8 µM) | 2 to 4 (≈ 3.48 to 6.95 µM) | 32 to 64 (≈ 55.6 to 111 µM) | 32 to 64 (≈ 55.6 to 111 µM) | > 128 | 2 to 4 (≈ 3.48 to 6.95 µM) | > 64 |
| NCCN1CCN(C(=O)N[C@@H](C(=O)N[C@H]2Cc3cccc(C(=O)O)c3OB2O)c2ccc(O)c(F)c2F)C(=O)C1=O (single isomer, unassigned) [Example 170] | 8 to 16 (≈ 13.9 to 27.8 µM) | 32 to 64 (≈ 55.6 to 111 µM) | 32 to 64 (≈ 55.6 to 111 µM) | > 128 | 32 to 64 (≈ 55.6 to 111 µM) | 2 to 4 (≈ 3.48 to 6.95 µM) | 8 to 16 (≈ 13.9 to 27.8 µM) | < 0.25 | 2 to 4 (≈ 3.48 to 6.95 µM) | 2 to 4 (≈ 3.48 to 6.95 µM) | 8 to 16 (≈ 13.9 to 27.8 µM) | 0.5 to 1 (≈ 0.869 to 1.74 µM) | > 64 |
| NS(=O)(=O)c1cccc(C(NC(=O)N2CCN(CCF)C(=O)C2=O)C(=O)N[C@H]2Cc3cccc(C(=O)O)c3OB2O)c1 (stereo partly drawn) [Example 100, (3R)-3-(2-(4-(2-fluoroethyl)-2,3-dioxopiperazine-1-carboxamido)-2-(3-sulfamoylphenyl)acetamido)-2-hydroxy-3,4-dihydro-2H-benzo[e][1,2]oxaborinine-8-carboxylic acid] | 32 to 64 (≈ 52.9 to 106 µM) | 32 to 64 (≈ 52.9 to 106 µM) | > 128 | > 128 | 32 to 64 (≈ 52.9 to 106 µM) | 8 to 16 (≈ 13.2 to 26.4 µM) | 32 to 64 (≈ 52.9 to 106 µM) | 2 to 4 (≈ 3.3 to 6.61 µM) | 2 to 4 (≈ 3.3 to 6.61 µM) | 2 to 4 (≈ 3.3 to 6.61 µM) | 32 to 64 (≈ 52.9 to 106 µM) | < 0.25 | > 64 |
| CCN1CCN(C(=O)NC(C(=O)N[C@H]2Cc3cccc(C(=O)O)c3OB2O)c2cc(Cl)c(O)cc2F)C(=O)C1=O (stereo partly drawn) [Example 101, (3R)-3-(2-(5-chloro-2-fluoro-4-hydroxyphenyl)-2-(4-ethyl-2,3-dioxopiperazine-1-carboxamido)acetamido)-2-hydroxy-3,4-dihydro-2H-benzo[e][1,2]oxaborinine-8-carboxylic acid] | 32 to 64 (≈ 55.5 to 111 µM) | > 128 | > 128 | > 128 | > 128 | 8 to 16 (≈ 13.9 to 27.7 µM) | 32 to 64 (≈ 55.5 to 111 µM) | 0.5 to 1 (≈ 0.867 to 1.73 µM) | 2 to 4 (≈ 3.47 to 6.94 µM) | 2 to 4 (≈ 3.47 to 6.94 µM) | 32 to 64 (≈ 55.5 to 111 µM) | < 0.25 | 16 to 32 (≈ 27.7 to 55.5 µM) |
| CCN1CCN(C(=O)NC(C(=O)N[C@H]2Cc3cccc(C(=O)O)c3OB2O)c2cc(F)c(O)cc2Cl)C(=O)C1=O (stereo partly drawn) [Example 103, (3R)-3-(2-(2-chloro-5-fluoro-4-hydroxyphenyl)-2-(4-ethyl-2,3-dioxopiperazine-1-carboxamido)acetamido)-2-hydroxy-3,4-dihydro-2H-benzo[e][1,2]oxaborinine-8-carboxylic acid] | 32 to 64 (≈ 55.5 to 111 µM) | > 128 | > 128 | > 128 | > 128 | 8 to 16 (≈ 13.9 to 27.7 µM) | 32 to 64 (≈ 55.5 to 111 µM) | 2 to 4 (≈ 3.47 to 6.94 µM) | 2 to 4 (≈ 3.47 to 6.94 µM) | 2 to 4 (≈ 3.47 to 6.94 µM) | 32 to 64 (≈ 55.5 to 111 µM) | < 0.25 | > 64 |
| CCN1CCN(C(=O)NC(C(=O)N[C@H]2Cc3cccc(C(=O)O)c3OB2O)c2cc(F)c(O)cc2F)C(=O)C1=O (stereo partly drawn) [Example 104, (3R)-3-(2-(2,5-difluoro-4-hydroxyphenyl)-2-(4-ethyl-2,3-dioxopiperazine-1-carboxamido)acetamido)-2-hydroxy-3,4-dihydro-2H-benzo[e][1,2]oxaborinine-8-carboxylic acid] | 32 to 64 (≈ 57.1 to 114 µM) | > 128 | > 128 | > 128 | 32 to 64 (≈ 57.1 to 114 µM) | 8 to 16 (≈ 14.3 to 28.6 µM) | 32 to 64 (≈ 57.1 to 114 µM) | 2 to 4 (≈ 3.57 to 7.14 µM) | 2 to 4 (≈ 3.57 to 7.14 µM) | 2 to 4 (≈ 3.57 to 7.14 µM) | 32 to 64 (≈ 57.1 to 114 µM) | < 0.25 | 16 to 32 (≈ 28.6 to 57.1 µM) |
| CCN1CCN(C(=O)NC(C(=O)N[C@H]2Cc3cccc(C(=O)O)c3OB2O)c2c(F)c(O)cc(O)c2F)C(=O)C1=O (stereo partly drawn) [Example 106, (3R)-3-(2-(2,6-difluoro-3,5-dihydroxyphenyl)-2-(4-ethyl-2,3-dioxopiperazine-1-carboxamido)acetamido)-2-hydroxy-3,4-dihydro-2H-benzo[e][1,2]oxaborinine-8-carboxylic acid] | > 128 | > 128 | > 128 | > 128 | > 128 | 8 to 16 (≈ 13.9 to 27.8 µM) | > 128 | 2 to 4 (≈ 3.47 to 6.94 µM) | 8 to 16 (≈ 13.9 to 27.8 µM) | 32 to 64 (≈ 55.5 to 111 µM) | > 128 | 2 to 4 (≈ 3.47 to 6.94 µM) | > 64 |
| CCN1CCN(C(=O)NC(C(=O)N[C@H]2Cc3cccc(C(=O)O)c3OB2O)c2cccc(CNS(N)(=O)=O)c2)C(=O)C1=O (stereo partly drawn) [Example 107, (3R)-3-(2-(4-ethyl-2,3-dioxopiperazine-1-carboxamido)-2-(3-((sulfamoylamino)methyl)phenyl)acetamido)-2-hydroxy-3,4-dihydro-2H-benzo[e][1,2]oxaborinine-8-carboxylic acid] | > 128 | > 128 | > 128 | > 128 | > 128 | 8 to 16 (≈ 13 to 26 µM) | 32 to 64 (≈ 51.9 to 104 µM) | 8 to 16 (≈ 13 to 26 µM) | 8 to 16 (≈ 13 to 26 µM) | 2 to 4 (≈ 3.24 to 6.49 µM) | > 128 | 0.5 to 1 (≈ 0.811 to 1.62 µM) | > 64 |
